# Test results as given in PMC11249637, “Interaction of the Atypical Tetracyclines Chelocardin and Amidochelocardin with Renal Drug Transporters” (ACS Pharmacology & Translational Science, 2024).
# How the values were obtained:
# mOat1 = biological target: T1, mOat1 (Mus musculus, UniProt Q8VC69); test: Three-point uptake (substrate assessment) in mOat1-overexpressing HEK293 cells; format: in vitro ADME; details: 10 μM compound, 100 μM probenecid, 1 and 5 min
# T1 construct: expressed in transfected cells; host or cells: HEK293
# T1 sequence (Q8VC69 1-545): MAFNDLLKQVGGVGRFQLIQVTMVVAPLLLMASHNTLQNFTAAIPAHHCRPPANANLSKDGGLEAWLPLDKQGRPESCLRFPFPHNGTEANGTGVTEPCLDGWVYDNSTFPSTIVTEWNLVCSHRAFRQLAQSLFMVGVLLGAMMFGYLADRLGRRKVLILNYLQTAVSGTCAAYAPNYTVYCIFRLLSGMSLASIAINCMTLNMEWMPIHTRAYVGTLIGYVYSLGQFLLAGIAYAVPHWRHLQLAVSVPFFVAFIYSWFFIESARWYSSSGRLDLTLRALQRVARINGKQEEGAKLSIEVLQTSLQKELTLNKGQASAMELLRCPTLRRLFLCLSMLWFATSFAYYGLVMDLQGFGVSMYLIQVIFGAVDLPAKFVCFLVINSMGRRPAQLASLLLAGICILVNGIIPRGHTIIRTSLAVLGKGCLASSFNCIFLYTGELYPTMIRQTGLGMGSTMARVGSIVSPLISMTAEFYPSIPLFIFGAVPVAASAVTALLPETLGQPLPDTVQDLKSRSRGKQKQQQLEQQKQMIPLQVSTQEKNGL
# Description: This is important to gain a better understanding of the underlying mechanisms of secretion into urine. Therefore, we assessed the amount of compound taken up by the vector and transporter cells at three different concentrations (1, 10, and 100 μM for mOat1 and mOct1; 0.1, 1, and 10 μM for mOat3) and at two different incubation periods (1 and 5 min for mOat1 and mOct1; 5 and 10 min for mOat3).
# The incubation buffer contained CHD and CDCHD in a final concentration of 1, 10, and 100 μM. After 1 and 5 min, the incubation was terminated. In addition, the probe inhibitor probenecid (100 μM) was added in one concentration to 10 μM CHD and CDCHD, respectively, and after 1 and 5 min, the incubation was stopped. Inhibition of mOat1-mediated ^3H-PAH (10 μM) uptake by 100 μM probenecid was performed as a control experiment. After 1 min, the incubation was terminated. […]
# First, a calibration curve was prepared by spiking different concentrations of CHD and CDCHD into the cell matrix. […] Samples were analyzed using an Agilent 1290 Infinity II HPLC system coupled to an AB Sciex QTrap6500plus mass spectrometer. […]
# For statistical testing of differences in uptake ratio or for the inhibitory effect, an ordinary one-way ANOVA test was performed using GraphPad Prism 9.5.1 software. […] Michaelis–Menten kinetics were determined using the Michaelis–Menten algorithm of GraphPad Prism 9.5.1 software. […]
# [1] = parameters: method as in PMID 38047701; details: 15 mg/kg IV; up to 8 h post administration; cited from earlier work
smiles,measurement,setting,value
"CC(=O)C1=C(O)[C@@H](N)[C@H]2Cc3c(c(O)c4c(O)c(C)ccc4c3C)C(=O)[C@@]2(O)C1=O [CHD, chelocardin]","uptake ratio (cells without vs with probenecid), mOat1",mOat1,< 1
same,urine levels of CHD compared to CDCHD,[1],10 fold
